This is an account of results in patent publication US8852876B2, “Label free biosensors and cells” (Corning Incorporated, priority 2008, dated 2014).

The test system of assay [1] is CHO cells. In words: Saponin-permeabilized cell assay for cytoskeleton modulators (LID biosensor). The following applies: saponin 67 ug/ml. In kind it is cell-based, Chinese hamster. The text has this:
The method involves the use of pore-forming reagents (e.g, saponin) to generate permeabilized cells which permit soluble proteins to diffuse away. It is known that treatment of the cells with many pore-forming reagents leads to permeabilized cells. Since intracellular macromolecules are highly organized within the cytoplasm of mammalian cells through direct binding to cytoskeletal elements, the permeabilized cells still retain most of the biological functions of living cells by sequestration of intracellular machinery through the cytoskeleton super-assembled structure, although the saponin-treated cells undergo the loss of some portions of biomacromolecules. However, upon disruption of microfilaments there is a dramatic reduction of protein synthesis accompanied by release of these translation components from the cells. Also, many other sequestered biomacromolecules are released from these permeabilized cells after disrupting the cytoskeleton structure. These further released materials from the permeabilized cells result in the loss in mass; thus resulting in the changes in effective refractive index of the cell layer on the surface of a LID biosensor which can be detected by LID biosensors. Thus, the changes obtained using optical biosensors can be used as an indicator of modulators that interfere with the cytoskeleton structure. In one embodiment, the present methods can be used to screen modulators that interfere with the cytoskeleton structure using the method 2500 shown in FIG. 25. In accordance with method 2500 one can monitor the mass redistribution due to pore formation of cell surface membranes induced by pore-forming reagents such as saponin in living cells 1008 by: (a) providing an optical LID biosensors 1004 (step 2502); (b) placing cells 1008 in a cell medium onto the said sensor 1004 (step 2504); (c) Optionally applying a buffer solution (step 2506); (d) applying a solution containing a compound into the cell mediums located on the top surfaces 1010 of covered optical LID biosensors 1004 (step 2508); applying a solution containing a pore-forming reagent (step 2510); and (e) interrogating the covered optical LID biosensors 1010 to monitor the time dependent optical responses which indicate mass redistributions within the permeabilized cells 1008 (step 2512). A Pore-forming reagent is a chemical or biological compound or composition that can result in the formation of pores in cell surface membranes when the cells are exposed to the reagent.
The pore-forming regents include detergents such as saponin and filipin, or toxin such as digitonin or streptolysin O. It is well known that treatment of the cells with these reagents can result in the pore formation in cell surface membrane; the resulted permeabilized cells can release a certain amount of intracellular material, mainly soluble proteins. However, there are a great number of bio-materials that still stay with these permeabilized cells due to the sequestration by directly binding or association with the cytoskeleton structure. As a matter of fact, these permeabilized cells retain many of the biological functions of living cells such as protein synthesis.
FIG. 50 presents the dose-dependent responses of CHO cells adherent on the surface of a LID sensor in response to saponin as a function of time. After the addition of saponin at different concentrations, a different response is evident. At low concentration, there is almost no response. […]

Assay [2] deals with EGF-induced response of quiescent A431 cells. Description: Effect of compound pretreatment on EGF-induced DMR response. Format: cell-based, human. Put shortly: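 A431 cells were made quiescent by ≥16 h culture in no or ~0.1% FBS medium. After two HBSS/20 mM HEPES pH 7.4 buffer additions ≥15 min apart, compound was added and then stimulus. Real-time dynamic mass redistribution was tracked by resonant waveguide biosensor with angular interrogation.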

For assay [3], the system named is CHO cells. In words: GPCR agonist-induced mass redistribution (optical LID). In kind it is cell-based, Chinese hamster. The text has this: These translocations can be located on a surface of an optical LID biosensor as disclosed herein. The particular data shown in FIGS. 52-60 was obtained using an optical waveguide grating sensor system and LID microplates (Nb2O5 plates), manufactured by Corning Incorporated. […] It is known that CHO cells 1008 endogenously express beta adrenergic receptors, alpha2-adrenergic receptors, P2Y receptors, as well as beta-arrestin and GRKs. It is also known that muscarinic receptors are endogenously expressed at very low level in the CHO cells 1008. In this experiment, approximately ˜5×10^4 CHO cells 1008 were placed within each well of a microplate that contained an array of optical LID biosensors 1004. The CHO cells 1008 were then cultured in 150 μl serum medium for 24 hours to ensure that the CHO cells 1008 became adherent to the substrate surface 1010. […] Since muscarinic receptors are endogenously expressed at very low level in CHO cells, oxotremorine M, agonist for muscarinic receptors, served as a control. Each of these agonists was directly applied to a different one of the wells which contained the serum medium. The optical responses were then collected by the optical LID system.

Assay [4] concerns the target T1, rat muscarinic receptor subtype 1 (Rattus norvegicus, UniProt P08482).
T1 construct: expressed in transfected cells; host or cells: CHO (M1 CHO)
T1 sequence (P08482 1-460): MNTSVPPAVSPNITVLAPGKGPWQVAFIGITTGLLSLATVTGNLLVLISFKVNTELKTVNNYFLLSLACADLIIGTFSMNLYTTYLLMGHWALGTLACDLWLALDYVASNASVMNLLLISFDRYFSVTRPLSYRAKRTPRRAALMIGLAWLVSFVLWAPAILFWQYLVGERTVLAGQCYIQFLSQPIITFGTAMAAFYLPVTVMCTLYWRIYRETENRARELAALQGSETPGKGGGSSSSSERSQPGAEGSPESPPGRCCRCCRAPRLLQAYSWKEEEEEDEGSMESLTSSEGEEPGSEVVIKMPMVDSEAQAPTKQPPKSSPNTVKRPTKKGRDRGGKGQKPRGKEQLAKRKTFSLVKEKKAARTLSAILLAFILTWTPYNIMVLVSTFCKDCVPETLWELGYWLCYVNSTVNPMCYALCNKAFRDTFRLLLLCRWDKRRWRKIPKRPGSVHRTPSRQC
In words: GPCR agonist-induced mass redistribution in M1 CHO cells (optical LID). In kind it is cell-based.

Assay [5] has as its system quiescent A431 cells. Description: GPCR agonist-induced DMR and EGFR transactivation. In kind it is cell-based, human. The following applies: for GPCR agonist-induced DMR response curve: bradykinin 100 nM, carbachol 10 μM, clonidine 1 μM. The procedure: Both A431 and CHO-K1 cells were grown in Dulbecco's modified Eagle's medium (DMEM) supplemented with 10% fetal calf serum, 100 μg/ml penicillin, and 100 μg/ml streptomycin. For cell culture, certain numbers of cells (2×10^5 to 1×10^6), either A431 or CHO-K1, were suspended in […] medium were placed in each well of a 96 well Corning Epic Biosensor microplate, and were cultured at 37° C. in air/5% CO2 for certain time until the cell density reached ˜90% and above (unless specified). The resulted cells were termed as “profilerating” cells. The “quiescent” cells were obtained by culturing the profilerating cells of desired confluencies with a medium containing no or little (˜0.1% fetal bovine serum (FBS)) for at least 16 hours.
During the assays, the cells in 100 μl medium were subject to two 25 μl HBSS buffer containing 20 mM HEPES, pH 7.4, each separated by at least 15 minutes before 50 μl stimulus-containing solution was applied. During all these steps, a parallel angular interrogation system was used to monitor the real time kinetics of cellular responses. For compound effect studies, a modified protocol was used which starts with 50 μl medium, and subject to sequential treatment: 25 μl HBSS buffer twice (each separated by at least 15 minutes), 50 μl compound solution and finally 50 μl stimulus-containing solution.

Assay [6] has as its system endogenous GPCRs in A431 cells. Description: DMR optical biosensor profiling of GPCR agonists. Format: cell-based, human. The following applies: quiescent A431; first class = Gq-type, second = Gs-type, third = Gi-type, fourth = no significant DMR.
Procedure: Human epidermoid carcinoma A431 cells (American Type Cell Culture) were grown in Dulbecco's modified Eagle's medium (DMEM) supplemented with 10% fetal bovine serum (FBS), 4.5 g/liter glucose, 2 mM glutamine, and antibiotics. ˜3-7.5×10^4 cells at passage 3 to 5 suspended in 200 μl the DMEM medium containing 10% FBS were placed in each well of a 96 well microplate. Similarly ˜1-2×10^4 cells in 50 μl the growth medium were placed in each well of a 384 well microplate. After cell seeding, the cells were cultured at 37° C. under air/5% CO2 until ˜95% confluency was reached (˜2-4 days).
A Corning® Epic™ angular interrogation system with transverse magnetic or p-polarized TM0 mode was used for all studies. Several extra actions were taken to minimize the unwanted effects. First, to minimize the bulk index changes when a compound solution is introduced, 1×HBSS buffer without any probenecid was used to dilute all the compounds, whereas the DMEM buffer only was used to starve the cells. Secondly, to facilitate the cell responses as well as to rapidly reach a steady state when the sensor plates having cells were placed in the system at room temperature, the cells were pre-starved with the DMEM buffer without any FBS for a prolonged period of time (typically 20±2 hours), and the quiescent cells were directly used for assays without any wash.
For kinetics measurements, the cultured cells (˜95% confluency) were starved for about 20 hours with DMEM alone at 37° C. under air/5% CO2. Afterwards, the sensor microplate containing cells was placed into the optical system, and the cell responses were recorded before and after addition of a solution at room temperature. […] All studies were carried out at room temperature with the lid of the microplate on except for a short period of time (˜seconds) when the solution was introduced, in order to minimize the effect of temperature fluctuation and evaporative cooling. The unit of the responses indicated herein was a change in pixel of the central position of the resonant band of each sensor as imaged by a CCD camera; 1 unit equals to ˜5.82×10^−4 refractive index changes, based on an experimental normalization protocol, which uses the concentration-dependent responses of both glycerol and dimethyl sulfoxide.
The panel of agonists were used individually to stimulate quiescent A431 cells. The dose-dependent and kinetic responses were recorded and analyzed. In a typical kinetic measurement, the angular shift of resonant lights of each sensor induced by an agonist is monitored in real time and plotted as a function of time. An increased signal (P-DMR) means an increase in the amount of bio-molecules within the sensing volume (˜120 nm); conversely, a decreased signal (N-DMR) means a decrease in the amount of bio-molecules within the sensing volume. The sensing volume, also known as penetration depth, is an intrinsic property of the coupled light within the waveguide film, which creates an evanescent wave extending into the cell layer and the medium.

Regarding dynamin inhibitory peptide [DIP], the “Effect of compound pre-treatment on saponin-induced response (loss of biomaterials)” value in assay [1] was “show no effect on a saponin-induced response”. In assay [2] (starved A431 cells, 8 nM EGF, 30-minute pretreatment, GH 0.5 ng/ml, PD98059 0.1 mM, PP1 1 μM, wortmannin 0.1 μM, DIP 50 μM), the “Effect of pre-treatment on EGF-induced P-DMR and N-DMR signals” value is listed as “totally blocks the N-DMR signal, but slightly increases the P-DMR signal with much slower kinetics”. Also, in assay [2] (starved A431 cells, EGF, DIP 50 μM), the “Increase of total P-DMR signal in presence vs absence of compound” value is recorded as 50%. For the same compound, the “Effect of pre-incubation on NECA-induced response” value is “little effect on NECA-induced response” in assay [3] (DIP 50 μM, 45 minutes, NECA 10 μM, CHO) and “little effect on NECA-induced response” in assay [4] (DIP 50 μM, 45 minutes, NECA 10 μM, M1 CHO). For the same compound, the “Effect of pre-incubation on clonidine-induced response” value in assay [3] (DIP 50 μM, 45 minutes, clonidine 10 μM, CHO) is reported as “almost totally eliminates the clonidine-induced mass distribution response”; in assay [4] (DIP 50 μM, 45 minutes, clonidine 10 μM, M1 CHO), “almost totally eliminates the clonidine-induced mass distribution response”. Besides, the “Effect of pre-incubation on oxotremorine M-induced response” value is recorded as “almost totally eliminates the oxotremorine M-induced mass distribution responses in both cell lines” in assay [3] (DIP 50 μM, 45 minutes, oxotremorine M 10 μM, CHO) and “almost totally eliminates the oxotremorine M-induced mass distribution responses in both cell lines” in assay [4] (DIP 50 μM, 45 minutes, oxotremorine M 10 μM, M1 CHO).
Consider `C[N+](C)(C)CC#CCN1CCCC1=O` [oxotremorine M], for which the Agonist-induced optical response result in assay [3] (ATP 100 μM, clonidine 10 μM, epinephrine 100 μM, oxotremorine M 10 μM) is listed as “caused almost no cell response”. Besides, in assay [4] (10 μM, compared with CHO cells), the “Ligand-induced response in M1-CHO cells” value was “significantly larger responses in M1-CHO cells”.
As to `C[N+](C)(C)CCOC(N)=O` [Carbachol, carbachol], the “GPCR agonist-induced DMR response curve” value in assay [5] was “responses with almost identical features as those induced by low concentrations (2-8 nM) of EGF”.
Consider `Clc1cccc(Cl)c1N=C1NCCN1` [clonidine], for which the “Class of optical signature (DMR) induced by agonist” value in assay [6] is on record as “did not exhibited any significant DMR signals”. Moreover, the “GPCR agonist-induced DMR response curve” value in assay [5] is reported as “responses with almost identical features as those induced by low concentrations (2-8 nM) of EGF”.
Take `COc1cc2ncnc(Nc3cccc(Cl)c3)c2cc1OC` [AG1478, tyrphostin AG1478]: the IC50 in assay [2] (read-out: IC50 for suppression of EGF-induced response (amplitude of N-DMR signal)) is roughly 194 nM. Also, in assay [5] (AG1478 10 μM), the “Effect of pretreatment on bradykinin-induced response” value is recorded as “can only partially attenuate the response”; the “Effect of pretreatment on carbachol- and clonidine-induced response” value was “totally abolished the N-DMR phase, and significantly reduced the kinetics of the P-DMR phase”.

One may read the IC50 as the concentration that gives 50% inhibition.
